Patent publication US7135337B2, “Insect expression vectors” (priority 1997, dated 2006)

Tests used:
[1] = tested on: SL2 cell line
Experimental: The dipteran (D. melanogaster) cell lines Kc1 and SL2, and the lepidopteran cell lines Sf9 (S. frugiperda), Ld652Y (L. dispar) and Cf1 (Choristoneura fumeferana) were tested for sensitivity to Zeocin in order to establish whether Zeocin was toxic in standard culture conditions to cell lines from these disparate insect orders. […] Accordingly, cells already committed to division would not be expected to be affected by Zeocin until the next round of DNA replication; it would therefore be expected that cells treated with Zeocin may divide once, but will be unable to undergo further mitotic divisions since their DNA will not be intact.
In accordance with the current understanding of Zeocin's mechanism of action, the minimal inhibitory concentration of Zeocin is described herein as the amount of antibiotic required to limit the culture to one doubling. […] Samples were removed daily, stained with 0.4% trypan blue and the number of viable cells determined in quadruplicate using a hemocytometer.

[2] = tested on: Sf9 cell line; conditions: TC-100 + 10% FBS, 27° C.
Experimental: (§1) The dipteran (D. melanogaster) cell lines Kc1 and SL2, and the lepidopteran cell lines Sf9 (S. frugiperda), Ld652Y (L. dispar) and Cf1 (Choristoneura fumeferana) were tested for sensitivity to Zeocin in order to establish whether Zeocin was toxic in standard culture conditions to cell lines from these disparate insect orders. Zeocin is thought to exert its toxic effects by binding to DNA to induce double strand breaks. Such strand cleavage is thought to inhibit growth by disruption of DNA replication, which in turn interferes with subsequent cell division. Accordingly, cells already committed to division would not be expected to be affected by Zeocin until the next round of DNA replication; it would therefore be expected that cells treated with Zeocin may divide once, but will be unable to undergo further mitotic divisions since their DNA will not be intact.
(§2) In accordance with the current understanding of Zeocin's mechanism of action, the minimal inhibitory concentration of Zeocin is described herein as the amount of antibiotic required to limit the culture to one doubling. Growth curves for the determination of inhibitory concentrations of Zeocin in the Kc1, SL2 and Sf9 cell lines (FIG. 4a) were performed in rotating 1.5 ml microcentrifuge tubes containing 1 ml of TC-100 complete medium (pH=6.2) with 10% fetal bovine serum (Life Technologies, Gaithersburg, Md., U.S.A.), 0.5–1.0×10^6 cells and varying concentrations of Zeocin (obtained from Invitrogen, San Diego, Calif.) at 27° C. Samples were removed daily, stained with 0.4% trypan blue and the number of viable cells determined in quadruplicate using a hemocytometer. The minimal inhibitory Zeocin concentrations affecting Ld652Y and Cf1 cell lines were determined by seeding approximately 5,000 cells in a total volume of 200 μl TC-100 complete medium +10% fetal bovine serum+Zeocin into wells of 96 well microtitre plates.

[3] = tested on: Cf1 cell line; conditions: TC-100 + 10% FBS
Experimental: as §1, §2

[4] = tested on: Kc1 cell line
Experimental: as §1, §2

[5] = tested on: Ld652Y cell line; conditions: Zeocin 10 μg/ml
Experimental: as §1, §2

[6] = tested on: Hi5 cell line
[7] = tested on: C6/36 cell line

Cc1c(N)nc([C@H](CC(N)=O)NC[C@H](N)C(N)=O)nc1C(=O)N[C@H](C(=O)N[C@H](C)[C@@H](O)[C@H](C)C(=O)N[C@H](C(=O)NCCC1=N[C@@H](c2nc(C(=O)NCCCCN=C(N)N)cs2)CS1)[C@@H](C)O)[C@@H](O[C@@H]1O[C@@H](CO)[C@@H](O)[C@H](O)[C@@H]1O[C@H]1O[C@H](CO)[C@@H](O)[C@H](OC(N)=O)[C@@H]1O)c1cnc[nH]1 [Zeocin]
Zeocin concentration that inhibited more than one round of cell division ([1]; TC-100 + 10% FBS, 27° C.): > 75 mg/mL
effect on growth rate ([1]; Zeocin 10 μg/ml): dramatic reductions in growth rates
Zeocin concentration required to completely inhibit further cell division [2]: at least 250 μg/ml
Zeocin concentration required to completely inhibit further cell division [3]: at least 250 μg/ml
Zeocin concentration that inhibited more than one round of cell division ([4]; TC-100 + 10% FBS, 27° C.): greater than 50 μg/ml
effect on growth rate ([4]; Zeocin 10 μg/ml): dramatic reductions in growth rates
effect on growth rate [5]: dramatic reductions in growth rates
Zeocin concentration found to inhibit growth [6]: 800 µg/mL
Zeocin concentration found to inhibit growth [7]: 250 µg/mL
